Key:
Assay type in all cases: cell-based, P. aeruginosa
[1] = test system: MvfR regulon; test: Quantification of pyocyanin (OD520nm of chloroform-extracted cultures); conditions: Pseudomonas aeruginosa, read-out: pyocyanin @50 uM (%), compound at 50 uM
[2] = test system: MvfR regulon; test: pqsA gene expression (pqsA-GFP reporter); conditions: Pseudomonas aeruginosa; for activity at 10 µM: read-out: pqsA @10 uM (%), compound at 10 uM; for activity at 50 µM: read-out: pqsA @50 uM (%), compound at 50 uM
Protocol: Experiments were performed to identify compounds that inhibit the MvfR regulon without altering growth, ultimately attenuating P. aeruginosa infection. MvfR is a LysR-type transcriptional regulator that directs HAQs synthesis, including that of its ligands, 4-hydroxy-2-heptylquinoline (HHQ) and 3,4-dihydroxy-2-heptylquinoline (PQS).
MvfR promotes the production of HAQs by binding to and activating the pqs operon, which encodes enzymes for HAQ synthesis. Anthranilic acid (AA), derived from the phnAB, kynABU, and trpEG pathways, is the precursor for HAQs. pqsA encodes an anthranilate-coenzyme A ligase, which activates anthranilic acid and catalyzes the first committed step to HAQ production. The exact roles of PqsB and PqsC are unknown, though both show homology to acyl-carrier-proteins and both are required for HHQ and PQS production. […] The final gene of the operon, pqsE encodes for a putative hydrolase, and while the protein is not required for the synthesis of HAQs, it is necessary for pyocyanin production.
Nanomolar levels of most of these MvfR antagonists impeded the activity of MvfR and in consequence the MvfR virulence regulated ACRP functions, including: (1) the production of the important pro-acute P. aeruginosa virulence factor pyocyanin (see e.g., FIG. 9A) the efficacy of two of these potent inhibitors, D57 and D88, was also confirmed by testing many different MDR P. aeruginosa clinical isolates (see e.g., FIG. 11A-11B), providing further confidence of their inhibitory potency; (2) the expression of the genes that encode the enzymes catalyzing the synthesis of both pro-acute and pro-persistence MvfR-regulated virulence molecules, 4-hydroxyl-2-alkyl-quinolines (HAQs) and 2-aminoacetophenon (2-AA), as assessed by pqsAGFP reporter gene expression (see e.g., FIG. 9B) and HAQ production showing the levels of MvfR inducers/ligands HHQ and PQS as well as of the molecules critical for biofilm and Antibiotic tolerant/persiters cells formation HQNO and 2-AA (see e.g., FIG. 9C); (3) AT/P cell formation (see e.g., FIGS. 11A, 12A); (4) biofilm formation (see e.g., FIG. 12B); and (5) biofilm dispersal of preformed biofilm by potentiating antibiotic action (see e.g., FIG. 11B).

[3] = test system: MvfR regulon; test: LC/MS quantification of HAQs and related molecules in bacterial culture supernatants; conditions: Pseudomonas aeruginosa

`CN(C(=O)CC(=O)Nc1ccc(C#N)cc1)c1ccc(F)cc1` [Compound 59] showed an activity at 50 µM [1] of 110%, an activity at 10 µM [2] of 110% and an activity at 50 µM [2] of 105%. The activity at 50 µM ([3]; read-out: 2-AA @50 uM) was 97.3%, the activity at 50 µM ([3]; read-out: AA @50 uM) was 35.5% and the activity at 50 µM ([3]; read-out: DHQ @50 uM) was 91%. For the same compound, the activity at 50 µM ([3]; read-out: HHQ @50 uM (%)) was 75.9%, the activity at 50 µM ([3]; read-out: HQNO @50 uM (%)) was 85.3% and the activity at 50 µM ([3]; read-out: PQS @50 uM (%)) was 86.6%.
In the case of `N#Cc1ccc(NC(=S)CC(=S)Nc2ccc(F)cc2)cc1` [Compound 60], the activity at 50 µM [1] is reported as 106%, the activity at 10 µM [2] is reported as 117% and the activity at 50 µM [2] is reported as 80.7%. For the same compound, the activity at 50 µM ([3]; read-out: 2-AA @50 uM) was 104%, the activity at 50 µM ([3]; read-out: AA @50 uM) was 28.2% and the activity at 50 µM ([3]; read-out: DHQ @50 uM) was 82.9%. It also gave an activity at 50 µM ([3]; read-out: HHQ @50 uM (%)) of 66.6%, an activity at 50 µM ([3]; read-out: HQNO @50 uM (%)) of 77% and an activity at 50 µM ([3]; read-out: PQS @50 uM (%)) of 83.6%.
With `N#Cc1ccc(NC(=O)CCC(=O)Nc2ccc(F)cc2)cc1` [Compound 61] the activity at 50 µM [1] was 99%, the activity at 10 µM [2] was 112% and the activity at 50 µM [2] was 77.8%. It also gave an activity at 50 µM ([3]; read-out: 2-AA @50 uM) of 93.6%, an activity at 50 µM ([3]; read-out: AA @50 uM) of 42.4% and an activity at 50 µM ([3]; read-out: DHQ @50 uM) of 93%. It also gave an activity at 50 µM ([3]; read-out: HHQ @50 uM (%)) of 79%, an activity at 50 µM ([3]; read-out: HQNO @50 uM (%)) of 85.5% and an activity at 50 µM ([3]; read-out: PQS @50 uM (%)) of 87.2%.
With `Cc1cc(F)ccc1NC(=O)CC(=O)Nc1ccc(C#N)cc1` [Compound 62] the activity at 50 µM [1] was 59.5%, the activity at 10 µM [2] was 110% and the activity at 50 µM [2] was 43.6%. It also gave an activity at 50 µM ([3]; read-out: 2-AA @50 uM) of 72.7%, an activity at 50 µM ([3]; read-out: AA @50 uM) of 58.7% and an activity at 50 µM ([3]; read-out: DHQ @50 uM) of 84.7%. For the same compound, the activity at 50 µM ([3]; read-out: HHQ @50 uM (%)) was 79.6%, the activity at 50 µM ([3]; read-out: HQNO @50 uM (%)) was 86.5% and the activity at 50 µM ([3]; read-out: PQS @50 uM (%)) was 83.5%.
`CC(=O)c1ccc(NC(=O)CC(=O)Nc2ccc(C#N)cc2)cc1` [Compound 63] was tested, and the activity at 50 µM [1] was 65.6%, the IC50 ([2]; read-out: IC50 pqsA (μM)) was 57.1 µM and the activity at 10 µM [2] was 86.5%. It also gave an activity at 50 µM [2] of 28%, an activity at 50 µM ([3]; read-out: 2-AA @50 uM) of 89.9% and an activity at 50 µM ([3]; read-out: AA @50 uM) of 131%. It also gave an activity at 50 µM ([3]; read-out: DHQ @50 uM) of 106%, an activity at 50 µM ([3]; read-out: HHQ @50 uM (%)) of 120% and an activity at 50 µM ([3]; read-out: HQNO @50 uM (%)) of 101%. The activity at 50 µM ([3]; read-out: PQS @50 uM (%)) was 119%.
Compound `N#Cc1ccc(NC(=O)CC(=O)Nc2ccc(C(=O)C(F)(F)F)cc2)cc1` [Compound 64] has an activity at 50 µM [1] of 84%, an activity at 10 µM [2] of 107% and an activity at 50 µM [2] of 102%. The activity at 50 µM ([3]; read-out: 2-AA @50 uM) was 140%, the activity at 50 µM ([3]; read-out: AA @50 uM) was 176% and the activity at 50 µM ([3]; read-out: DHQ @50 uM) was 88.8%. It also gave an activity at 50 µM ([3]; read-out: HHQ @50 uM (%)) of 107%, an activity at 50 µM ([3]; read-out: HQNO @50 uM (%)) of 103% and an activity at 50 µM ([3]; read-out: PQS @50 uM (%)) of 104%.
`N#Cc1ccc(NC(=O)CC(=O)Nc2ccc(N)cc2)cc1` [Compound 67] gave an activity at 50 µM [1] of 87.2%, an activity at 10 µM [2] of 97.9% and an activity at 50 µM [2] of 89.7%. It also gave an activity at 50 µM ([3]; read-out: 2-AA @50 uM) of 101%, an activity at 50 µM ([3]; read-out: AA @50 uM) of 115% and an activity at 50 µM ([3]; read-out: DHQ @50 uM) of 103%. For the same compound, the activity at 50 µM ([3]; read-out: HHQ @50 uM (%)) was 92.3%, the activity at 50 µM ([3]; read-out: HQNO @50 uM (%)) was 91.7% and the activity at 50 µM ([3]; read-out: PQS @50 uM (%)) was 86.4%.
`CC(=O)Nc1ccc(NC(=O)CC(=O)Nc2ccc(C#N)cc2)cc1` [Compound 68] gave an activity at 50 µM [1] of 103%, an activity at 10 µM [2] of 94.2% and an activity at 50 µM [2] of 84.8%. It also gave an activity at 50 µM ([3]; read-out: 2-AA @50 uM) of 92.8%, an activity at 50 µM ([3]; read-out: AA @50 uM) of 56% and an activity at 50 µM ([3]; read-out: DHQ @50 uM) of 98.2%. It also gave an activity at 50 µM ([3]; read-out: HHQ @50 uM (%)) of 74.7%, an activity at 50 µM ([3]; read-out: HQNO @50 uM (%)) of 84.6% and an activity at 50 µM ([3]; read-out: PQS @50 uM (%)) of 87.6%.
`N#Cc1ccc(NC(=O)CC(=O)Nc2ccc(NC(=O)C(F)(F)F)cc2)cc1` [Compound 69] gave an activity at 50 µM [1] of 93.8%, an activity at 10 µM [2] of 94.2% and an activity at 50 µM [2] of 84.9%. It also gave an activity at 50 µM ([3]; read-out: 2-AA @50 uM) of 117%, an activity at 50 µM ([3]; read-out: AA @50 uM) of 82.4% and an activity at 50 µM ([3]; read-out: DHQ @50 uM) of 108%. The activity at 50 µM ([3]; read-out: HHQ @50 uM (%)) was 103%, the activity at 50 µM ([3]; read-out: HQNO @50 uM (%)) was 101% and the activity at 50 µM ([3]; read-out: PQS @50 uM (%)) was 101%.
`CS(=O)(=O)CNc1ccc(NC(=O)CC(=O)Nc2ccc(C#N)cc2)cc1` [Compound 70] was tested, and the activity at 50 µM [1] was 99.7%, the activity at 10 µM [2] was 94.7% and the activity at 50 µM [2] was 131%. For the same compound, the activity at 50 µM ([3]; read-out: 2-AA @50 uM) was 94.8%, the activity at 50 µM ([3]; read-out: AA @50 uM) was 117% and the activity at 50 µM ([3]; read-out: DHQ @50 uM) was 80%. The activity at 50 µM ([3]; read-out: HHQ @50 uM (%)) was 130%, the activity at 50 µM ([3]; read-out: HQNO @50 uM (%)) was 98.3% and the activity at 50 µM ([3]; read-out: PQS @50 uM (%)) was 115%.

Reference: patent publication US11731946B2, “Broad spectrum antivirulence, anti-persistence compounds” (priority 2017, dated 2023)
